# Earlier results, collected in paper PMC11345828 (Journal of Medicinal Chemistry, 2024).
# Details: mouse, in vivo; cited from earlier work
smiles,measurement,value
Cc1c(-c2c(-c3ccc(F)o3)sc3ncnc(O[C@H](Cc4ccccc4OCc4ccnn4CC(F)(F)F)C(=O)O)c23)ccc(OCCN2CCN(C)CC2)c1Cl [Compound S63845],maximum tolerated dose lower than in wild-type mice,~3 fold
